Test results as given in US9868772B2 (INDIANA UNIVERSITY RESEARCH AND TECHNOLOGY CORPORATION, priority 2012, dated 2018).
Numbered stars: 1 amine (or outer) side, 2 acyl side, 3 side chain; on linkers, the order of the positions; unused ones are H or OH. Square brackets hold non-standard residues; d marks the D form. Side chains are listed from the residue outwards. Peptide text beside a SMILES is read from it. * marks the point of attachment. γGlu = O=C(O)[C@H](CCC(=O)[*:2])N[*:1]; Desaminotyrosyl = O=C(CCc1ccc(O)cc1)*; Palmitoyl = CCCCCCCCCCCCCCCC(=O)*; βAla = NCCC(=O)O

Key:
Assay in all cases: cAMP induction, firefly luciferase reporter assay in HEK293 cells co-transfected with receptor
Assay type in all cases: cell-based
[1] = molecular target: T1, GIP receptor (Homo sapiens, UniProt P48546)
T1 construct: expressed in transfected cells; host or cells: HEK293
T1 sequence (P48546 22-466): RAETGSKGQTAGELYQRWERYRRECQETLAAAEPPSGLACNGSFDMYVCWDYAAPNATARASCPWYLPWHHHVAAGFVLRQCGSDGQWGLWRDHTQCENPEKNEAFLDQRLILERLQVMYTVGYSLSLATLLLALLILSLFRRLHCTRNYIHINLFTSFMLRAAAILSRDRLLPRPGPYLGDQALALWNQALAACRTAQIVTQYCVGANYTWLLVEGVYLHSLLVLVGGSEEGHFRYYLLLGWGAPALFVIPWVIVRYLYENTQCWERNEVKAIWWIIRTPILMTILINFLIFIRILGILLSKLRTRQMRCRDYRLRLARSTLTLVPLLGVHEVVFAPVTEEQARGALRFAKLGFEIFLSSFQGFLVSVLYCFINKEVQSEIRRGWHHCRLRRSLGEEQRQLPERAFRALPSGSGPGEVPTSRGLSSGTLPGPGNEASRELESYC
Description: (§1) The ability of glucagon analogs to induce cAMP was measured in a firefly luciferase-based reporter assay. […] At the end of the incubation 100 microliters of LucLite luminescence substrate reagent (Perkin-Elmer, Wellesley, Mass.) were added to each well. […] Effective 50% concentrations were calculated by using Origin software (OriginLab, Northampton, Mass.

[2] = molecular target: T2, GLP-1 receptor (Homo sapiens, UniProt P43220)
T2 construct: expressed in transfected cells; host or cells: HEK293
Description: as §1

[3] = molecular target: T3, glucagon receptor (Homo sapiens, UniProt P47871)
T3 construct: expressed in transfected cells; host or cells: HEK293
Description: as §1

[4] = Table 1, analogs of SEQ ID NO: 37
[5] = Table 3, analogs of SEQ ID NO: 12
[6] = Table 2, analogs of SEQ ID NO: 10

T2 sequence (P43220 24-463): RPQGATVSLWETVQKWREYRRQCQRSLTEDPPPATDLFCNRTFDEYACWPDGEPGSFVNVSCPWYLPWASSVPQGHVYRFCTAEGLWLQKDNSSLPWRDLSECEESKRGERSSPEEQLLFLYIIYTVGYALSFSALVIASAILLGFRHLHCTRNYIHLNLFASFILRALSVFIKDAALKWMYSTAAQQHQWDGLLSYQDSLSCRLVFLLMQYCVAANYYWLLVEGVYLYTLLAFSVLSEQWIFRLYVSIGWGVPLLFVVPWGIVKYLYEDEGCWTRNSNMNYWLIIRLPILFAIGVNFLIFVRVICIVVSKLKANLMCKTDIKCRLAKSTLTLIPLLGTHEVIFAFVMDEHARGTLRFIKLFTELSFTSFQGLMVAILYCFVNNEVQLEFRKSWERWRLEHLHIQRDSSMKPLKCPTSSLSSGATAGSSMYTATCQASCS
T3 sequence (P47871 26-477): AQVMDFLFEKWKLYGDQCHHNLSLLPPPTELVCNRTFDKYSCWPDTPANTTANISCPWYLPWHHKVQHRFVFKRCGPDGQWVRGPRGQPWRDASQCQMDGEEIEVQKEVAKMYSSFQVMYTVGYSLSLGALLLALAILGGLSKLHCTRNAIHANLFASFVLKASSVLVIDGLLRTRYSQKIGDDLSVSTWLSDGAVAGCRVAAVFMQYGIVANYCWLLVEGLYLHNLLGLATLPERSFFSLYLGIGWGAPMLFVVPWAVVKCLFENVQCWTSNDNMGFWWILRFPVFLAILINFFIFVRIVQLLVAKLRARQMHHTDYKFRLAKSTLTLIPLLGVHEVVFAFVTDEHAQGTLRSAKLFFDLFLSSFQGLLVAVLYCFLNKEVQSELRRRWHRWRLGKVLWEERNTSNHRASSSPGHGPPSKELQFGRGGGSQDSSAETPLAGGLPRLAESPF

Compound	EC50 [1, 4] [nM]	EC50 [2, 4] [nM]	EC50 [3, 4] [nM]	EC50 [1, 6] [nM]	EC50 [2, 6] [nM]	EC50 [3, 6] [nM]	also measured
CCCCCCCCCCCCCCCC(=O)N[C@@H](CCC(=O)NCCCC[C@H](NC(=O)[C@H](CC(=O)O)NC(=O)[C@H](CO)NC(=O)[C@@H](NC(=O)[C@H](Cc1ccccc1)NC(=O)[C@@H](NC(=O)CNC(=O)[C@H](CCC(N)=O)NC(=O)CNC(=O)[C@H](CCC(N)=O)NC(C)=O)[C@@H](C)O)[C@@H](C)O)C(=O)N[C@@H](CO)C(=O)N[C@@H](CCCCN)C(=O)N[C@@H](Cc1ccc(O)cc1)C(=O)N[C@@H](CC(C)C)C(=O)N[C@@H](CC(=O)O)C(=O)N[C@@H](CCC(=O)O)C(=O)N[C@@H](CCCNC(=N)N)C(=O)N[C@@H](C)C(=O)N[C@@H](C)C(=O)N[C@@H](CCC(N)=O)C(=O)N[C@@H](CC(=O)O)C(=O)N[C@@H](Cc1ccccc1)C(=O)N[C@H](C(=O)N[C@@H](CCC(N)=O)C(=O)N[C@@H](Cc1c[nH]c2ccccc12)C(=O)N[C@@H](CC(C)C)C(=O)N[C@@H](CC(C)C)C(=O)N[C@@H](CCC(=O)O)C(=O)NCC(=O)NCC(=O)N1CCC[C@H]1C(=O)N[C@@H](CO)C(=O)N[C@@H](CO)C(=O)NCC(=O)N[C@@H](C)C(=O)N1CCC[C@H]1C(=O)N1CCC[C@H]1C(=O)N1CCC[C@H]1C(=O)N[C@@H](CO)C(N)=O)C(C)C)C(=O)O [compound 34] (Ac-QGQGTFTSDK([γGlu-Palmitoyl])SKYLDERAAQDFVQWLLEGGPSSGAPPPS-NH2)	0.436	0.611	0.163				
CCCCCCCCCCCCCCCC(=O)N[C@@H](CCC(=O)NCCCC[C@H](NC(=O)[C@H](CC(=O)O)NC(=O)[C@H](CO)NC(=O)[C@@H](NC(=O)[C@H](Cc1ccccc1)NC(=O)[C@@H](NC(=O)CNC(=O)[C@H](CCC(N)=O)NC(=O)[C@H](C)NC(=O)[C@@H](Cc1ccc(O)cc1)NC(C)=O)[C@@H](C)O)[C@@H](C)O)C(=O)N[C@@H](CO)C(=O)N[C@@H](CCCCN)C(=O)N[C@@H](Cc1ccc(O)cc1)C(=O)N[C@@H](CC(C)C)C(=O)N[C@@H](CC(=O)O)C(=O)N[C@@H](CCC(=O)O)C(=O)N[C@@H](CCCNC(=N)N)C(=O)N[C@@H](C)C(=O)N[C@@H](C)C(=O)N[C@@H](CCC(N)=O)C(=O)N[C@@H](CC(=O)O)C(=O)N[C@@H](Cc1ccccc1)C(=O)N[C@H](C(=O)N[C@@H](CCC(N)=O)C(=O)N[C@@H](Cc1c[nH]c2ccccc12)C(=O)N[C@@H](CC(C)C)C(=O)N[C@@H](CC(C)C)C(=O)N[C@@H](CC(=O)O)C(=O)N[C@@H](CC(C)C)C(=O)NCC(=O)N1CCC[C@H]1C(=O)N[C@@H](CO)C(=O)N[C@@H](CO)C(=O)NCC(=O)N[C@@H](C)C(=O)N1CCC[C@H]1C(=O)N1CCC[C@H]1C(=O)N1CCC[C@H]1C(=O)N[C@@H](CO)C(N)=O)C(C)C)C(=O)O [compound 153] (Ac-[dY]AQGTFTSDK([γGlu-Palmitoyl])SKYLDERAAQDFVQWLLDLGPSSGAPPPS-NH2)							EC50 [1, 5]: 0.018 nM; EC50 [2, 5]: 0.017 nM; EC50 [3, 5]: 0.021 nM
CCCCCCCCCCCCCCCC(=O)NCCCC[C@H](NC(=O)[C@H](CO)NC(=O)[C@@H]1CCCN1C(=O)[C@@H]1CCCN1C(=O)[C@@H]1CCCN1C(=O)[C@H](C)NC(=O)CNC(=O)[C@H](CO)NC(=O)[C@H](CO)NC(=O)[C@@H]1CCCN1C(=O)CNC(=O)CNC(=O)[C@H](CCC(=O)O)NC(=O)[C@H](CC(C)C)NC(=O)[C@H](CC(C)C)NC(=O)[C@H](Cc1c[nH]c2ccccc12)NC(=O)[C@H](CCC(N)=O)NC(=O)[C@@H](NC(=O)[C@H](Cc1ccccc1)NC(=O)[C@H](CC(=O)O)NC(=O)[C@H](CCC(N)=O)NC(=O)[C@H](C)NC(=O)[C@H](C)NC(=O)[C@H](CCCNC(=N)N)NC(=O)[C@H](CCC(=O)O)NC(=O)[C@H](CC(=O)O)NC(=O)[C@H](CC(C)C)NC(=O)[C@H](Cc1ccc(O)cc1)NC(=O)[C@H](CCCCN)NC(=O)[C@H](CO)NC(=O)[C@H](Cc1ccc(O)cc1)NC(=O)[C@H](CC(=O)O)NC(=O)[C@H](CO)NC(=O)[C@@H](NC(=O)[C@H](Cc1ccccc1)NC(=O)[C@@H](NC(=O)CNC(=O)[C@H](CCC(N)=O)NC(=O)[C@H](C)NC(=O)CCc1ccc(O)cc1)[C@@H](C)O)[C@@H](C)O)C(C)C)C(=O)NCC(N)=O [compound 157] (Desaminotyrosyl-AQGTFTSDYSKYLDERAAQDFVQWLLEGGPSSGAPPPSK(Palmitoyl)G-NH2)				0.059	0.013	0.047	
CCCCCCCCCCCCCCCC(=O)N[C@@H](CCC(=O)N[C@@H](CCC(=O)NCCCC[C@H](NC(=O)[C@H](CO)NC(=O)[C@@H]1CCCN1C(=O)[C@@H]1CCCN1C(=O)[C@@H]1CCCN1C(=O)[C@H](C)NC(=O)CNC(=O)[C@H](CO)NC(=O)[C@H](CO)NC(=O)[C@@H]1CCCN1C(=O)CNC(=O)CNC(=O)[C@H](CCC(=O)O)NC(=O)[C@H](CC(C)C)NC(=O)[C@H](CC(C)C)NC(=O)[C@H](Cc1c[nH]c2ccccc12)NC(=O)[C@H](CCC(N)=O)NC(=O)[C@@H](NC(=O)[C@H](Cc1ccccc1)NC(=O)[C@H](CC(=O)O)NC(=O)[C@H](CCC(N)=O)NC(=O)[C@H](C)NC(=O)[C@H](C)NC(=O)[C@H](CCCNC(=N)N)NC(=O)[C@H](CCC(=O)O)NC(=O)[C@H](CC(=O)O)NC(=O)[C@H](CC(C)C)NC(=O)[C@H](Cc1ccc(O)cc1)NC(=O)[C@H](CCCCN)NC(=O)[C@H](CO)NC(=O)[C@H](Cc1ccc(O)cc1)NC(=O)[C@H](CC(=O)O)NC(=O)[C@H](CO)NC(=O)[C@@H](NC(=O)[C@H](Cc1ccccc1)NC(=O)[C@@H](NC(=O)CNC(=O)[C@H](CCC(N)=O)NC(=O)[C@H](C)NC(=O)CCc1ccc(O)cc1)[C@@H](C)O)[C@@H](C)O)C(C)C)C(=O)NCC(N)=O)C(=O)O)C(=O)O [compound 160] (Desaminotyrosyl-AQGTFTSDYSKYLDERAAQDFVQWLLEGGPSSGAPPPSK([γGlu-γGlu-Palmitoyl])G-NH2)				0.086	0.022	0.049	
Ac-[dY]AQGTFTSDYSKYLDERAAQDFVQWLLEGGPSSGAPPPSK([γGlu-γGlu-Palmitoyl])G-NH2 [compound 149]				0.008	0.002	0.012	
CCCCCCCCCCCCCCCC(=O)N[C@@H](CCC(=O)NCCCC[C@H](NC(=O)[C@H](CC(=O)O)NC(=O)[C@H](CO)NC(=O)[C@@H](NC(=O)[C@H](Cc1ccccc1)NC(=O)[C@@H](NC(=O)CNC(=O)[C@H](CCC(N)=O)NC(=O)CCNC(=O)[C@@H](N)Cc1c[nH]cn1)[C@@H](C)O)[C@@H](C)O)C(=O)N[C@@H](CO)C(=O)N[C@@H](CCCCN)C(=O)N[C@@H](Cc1ccc(O)cc1)C(=O)N[C@@H](CC(C)C)C(=O)N[C@@H](CC(=O)O)C(=O)N[C@@H](CCC(=O)O)C(=O)N[C@@H](CCCNC(=N)N)C(=O)N[C@@H](C)C(=O)N[C@@H](C)C(=O)N[C@@H](CCC(N)=O)C(=O)N[C@@H](CC(=O)O)C(=O)N[C@@H](Cc1ccccc1)C(=O)N[C@H](C(=O)N[C@@H](CCC(N)=O)C(=O)N[C@@H](Cc1c[nH]c2ccccc12)C(=O)N[C@@H](CC(C)C)C(=O)N[C@@H](CC(C)C)C(=O)N[C@@H](CCC(=O)O)C(=O)NCC(=O)NCC(=O)N1CCC[C@H]1C(=O)N[C@@H](CO)C(=O)N[C@@H](CO)C(=O)NCC(=O)N[C@@H](C)C(=O)N1CCC[C@H]1C(=O)N1CCC[C@H]1C(=O)N1CCC[C@H]1C(=O)N[C@@H](CO)C(N)=O)C(C)C)C(=O)O [compound 26] (H-H[βAla]QGTFTSDK([γGlu-Palmitoyl])SKYLDERAAQDFVQWLLEGGPSSGAPPPS-NH2)	0.071	0.002	0.095				
